Source: patent US9233978B2, “6-fused heteroaryldihydropyrimidines for the treatment and prophylaxis of hepatitis B virus infection” (Hoffmann-La Roche Inc., priority 2014, dated 2016)

These compounds were tested on HBV (assay: Anti-HBV activity in vitro, HepG2.2.15 cells, extracellular HBV DNA by qPCR). Conditions: Hepatitis B virus, HepG2.2.15, 120 h, HepG2.2.15 cells; HBV replication inhibited by 50%, extracellular HBV DNA by qPCR; five days after compound treatment; read-out: EC50.
Format: cell-based
Source text: HepG2.2.15 and HepDE19 are stably-transfected cell lines containing the HBV genome. Both cell lines are derived from the hepatoblastoma cell line Hep G2 (American Type Culture Collection, ATCC® HB-8065™) by the published procedures described in references: MA Selles et al. Proc. Natl. Acad. Sci. USA 1987, 84, 1005-1009 and H Guo et al. Journal of Virology 2007, 81, 12472-12484, respectively. Both cell lines were maintained in Dulbecco's modified Eagle's medium (DMEM)-F12 medium supplemented with 10% fetal bovine serum, 100 U/mL penicillin, 100 μg/mL streptomycin, and 0.5 mg/mL of G418.
While HepG2.2.15 cells constitutively support HBV replication and production of virus particles, HepDE19 cells are inducible by tetracycline. Addition of 1 μg/mL tetracycline in culture medium suppresses HBV replication in HepDE19 cells, whereas switching to tetracycline-free medium resumes this process.
HepG2.2.15 cells were seeded into 96-well plates (3×10^4 cells in 100 μL media per well) and incubated overnight at 37° C. The test compounds were serially half-log diluted in DMSO, then diluted 100 times in culture media. 100 μL of diluted compounds were added into the plates to reach 0.5% final concentration of DMSO in every well. Five days after compound treatment, culture supernatant was collected for further analysis.
For quantitative PCR detection of extracellular HBV DNA, 100 μL of culture supernatant was collected and processed in MagNA Pure 96 Nucleic Acid Purification System (Roche Applied Science) for viral DNA extraction. The extracted samples were subjected to HBV DNA quantification by qPCR.
In the case of `COC(=O)C1=C(CN2CCN3C(=O)COCC3C2)NC(c2nccs2)=N[C@H]1c1ccc(F)cc1Cl` (stereo partly drawn) [Example 2, Methyl (4R)-4-(2-chloro-4-fluoro-phenyl)-6-[(4-oxo-6,7,9,9a-tetrahydro-1H-pyrazino[2,1-c][1,4]oxazin-8-yl)methyl]-2-thiazol-2-yl-1,4-dihydropyrimidine-5-carboxylate], the EC50 is reported as 54 nM. `COC(=O)C1=C(CN2CCN3C(=O)OC[C@H]3C2)NC(c2nccs2)=N[C@H]1c1ccc(F)cc1Cl` [Example 3, Methyl (4R)-6-[[(8aR)-3-oxo-5,6,8,8a-tetrahydro-1H-oxazolo[3,4-a]pyrazin-7-yl]methyl]-4-(2-chloro-4-fluoro-phenyl)-2-thiazol-2-yl-1,4-dihydropyrimidine-5-carboxylate] was tested, and the EC50 was 23 nM. Work on `COC(=O)C1=C(CN2CCN3C(=O)CC[C@H]3C2)NC(c2nccs2)=N[C@H]1c1ccc(F)cc1Cl` [Example 5, Methyl (4R)-6-[[(8aS)-6-oxo-1,3,4,7,8,8a-hexahydropyrrolo[1,2-a]pyrazin-2-yl]methyl]-4-(2-chloro-4-fluoro-phenyl)-2-thiazol-2-yl-1,4-dihydropyrimidine-5-carboxylate] yielded an EC50 of 159 nM. For `COC(=O)C1=C(CN2CCN3C(=O)CC[C@@H]3C2)NC(c2nccs2)=N[C@H]1c1ccc(F)cc1Cl` [Example 6, Methyl (4R)-6-[[(8aR)-6-oxo-1,3,4,7,8,8a-hexahydropyrrolo[1,2-a]pyrazin-2-yl]methyl]-4-(2-chloro-4-fluoro-phenyl)-2-thiazol-2-yl-1,4-dihydropyrimidine-5-carboxylate], the EC50 was 14 nM. Compound `COC(=O)C1=C(CN2CCN3C(=O)CC[C@@H]3C2)NC(c2nccs2)=N[C@H]1c1ccc(F)cc1Br` [Example 7, Methyl (4R)-6-[[(8aR)-6-oxo-1,3,4,7,8,8a-hexahydropyrrolo[1,2-a]pyrazin-2-yl]methyl]-4-(2-bromo-4-fluoro-phenyl)-2-thiazol-2-yl-1,4-dihydropyrimidine-5-carboxylate] has an EC50 of 14 nM. Work on `CCOC(=O)C1=C(CN2CCN3C(=O)CC[C@@H]3C2)NC(c2nccs2)=N[C@H]1c1ccc(F)cc1Br` [Example 8, Ethyl (4R)-6-[[(8aR)-6-oxo-1,3,4,7,8,8a-hexahydropyrrolo[1,2-a]pyrazin-2-yl]methyl]-4-(2-bromo-4-fluoro-phenyl)-2-thiazol-2-yl-1,4-dihydropyrimidine-5-carboxylate] yielded an EC50 of 11 nM. `CCOC(=O)C1=C(CN2CCN3C(=O)CC[C@@H]3C2)NC(c2nccs2)=N[C@H]1c1ccc(F)c(F)c1` [Example 9, Ethyl (4 S)-6-[[(8aR)-6-oxo-1,3,4,7,8,8a-hexahydropyrrolo[1,2-a]pyrazin-2-yl]methyl]-4-(3,4-difluorophenyl)-2-thiazol-2-yl-1,4-dihydropyrimidine-5-carboxylate] gave an EC50 of 64 nM. In the case of `CCOC(=O)C1=C(CN2CCN3C(=O)CCCC3C2)NC(c2nccs2)=N[C@H]1c1cccc(F)c1Cl` (stereo partly drawn) [Example 10, Ethyl (4R)-4-(2-chloro-3-fluoro-phenyl)-6-[(6-oxo-3,4,7,8,9,9a-hexahydro-1H-pyrido[1,2-a]pyrazin-2-yl)methyl]-2-thiazol-2-yl-1,4-dihydropyrimidine-5-carboxylate], the EC50 is reported as 57 nM. With `COC(=O)C1=C(CN2CCN3C(=O)NC[C@H]3C2)NC(c2nccs2)=N[C@H]1c1ccc(F)cc1Cl` [Example 12, Methyl (4R)-6-[[(8aS)-3-oxo-1,2,5,6,8,8a-hexahydroimidazo[1,5-a]pyrazin-7-yl]methyl]-4-(2-chloro-4-fluoro-phenyl)-2-thiazol-2-yl-1,4-dihydropyrimidine-5-carboxylate] the EC50 was 149 nM. `CCOC(=O)C1=C(CN2CCN3C(=O)NC[C@H]3C2)NC(c2nccs2)=N[C@H]1c1ccc(F)cc1Br` [Example 13, Ethyl (4R)-6-[[(8aS)-3-oxo-1,2,5,6,8,8a-hexahydroimidazo[1,5-a]pyrazin-7-yl]methyl]-4-(2-bromo-4-fluoro-phenyl)-2-thiazol-2-yl-1,4-dihydropyrimidine-5-carboxylate] showed an EC50 of 66 nM. `COC(=O)C1=C(CN2CCN3C(=O)NC(=O)[C@H]3C2)NC(c2nccs2)=N[C@H]1c1ccc(F)cc1Cl` [Example 15, Methyl (4R)-6-[[(8aR)-1,3-dioxo-5,6,8,8a-tetrahydroimidazo[1,5-a]pyrazin-7-yl]methyl]-4-(2-chloro-4-fluoro-phenyl)-2-thiazol-2-yl-1,4-dihydropyrimidine-5-carboxylate] showed an EC50 of 110 nM. `COC(=O)C1=C(CN2CCN3C(=O)NC(=O)[C@@H]3C2)NC(c2nccs2)=N[C@H]1c1ccc(F)cc1Cl` [Example 16, Methyl (4R)-6-[[(8aS)-1,3-dioxo-5,6,8,8a-tetrahydroimidazo[1,5-a]pyrazin-7-yl]methyl]-4-(2-chloro-4-fluoro-phenyl)-2-thiazol-2-yl-1,4-dihydropyrimidine-5-carboxylate] gave an EC50 of 41 nM. `COC(=O)C1=C(CN2CCN3[C@H](CNS3(=O)=O)C2)NC(c2nccs2)=N[C@H]1c1ccc(F)cc1Cl` [Example 17, Methyl (4R)-6-[[(3aS)-1,1-dioxo-2,3,3a,4,6,7-hexahydro-[1,2,5]thiadiazolo[2,3-a]pyrazin-5-yl]methyl]-4-(2-chloro-4-fluoro-phenyl)-2-thiazol-2-yl-1,4-dihydropyrimidine-5-carboxylate] was tested, and the EC50 was 39 nM. For `COC(=O)C1=C(CN2CCN3[C@@H](CNS3(=O)=O)C2)NC(c2nccs2)=N[C@H]1c1ccc(F)cc1Cl` [Example 18, Methyl (4R)-6-[[(3aR)-1,1-dioxo-2,3,3a,4,6,7-hexahydro-[1,2,5]thiadiazolo[2,3-a]pyrazin-5-yl]methyl]-4-(2-chloro-4-fluoro-phenyl)-2-thiazol-2-yl-1,4-dihydropyrimidine-5-carboxylate], the EC50 was 108 nM. With `CCOC(=O)C1=C(CN2CCN3C(=O)N(C(C)(C)C(=O)OC)CC3C2)NC(c2nccs2)=N[C@H]1c1cccc(F)c1Cl` (stereo partly drawn) [Example 23, Ethyl (4R)-4-(2-chloro-3-fluoro-phenyl)-6-[[2-(2-methoxy-1,1-dimethyl-2-oxo-ethyl)-3-oxo-5,6,8,8a-tetrahydro-1H-imidazo[1,5-a]pyrazin-7-yl]methyl]-2-thiazol-2-yl-1,4-dihydropyrimidine-5-carboxylate] the EC50 was 3 nM. `COC(=O)C1=C(CN2CCN3C(=O)N([C@H]4CCC[C@@H]4C(=O)O)C[C@@H]3C2)NC(c2nccs2)=N[C@H]1c1ccc(F)cc1Cl` [Example 52, (1S,2S)-2-[(8aS)-7-[[(4R)-4-(2-chloro-4-fluoro-phenyl)-5-methoxycarbonyl-2-thiazol-2-yl-1,4-dihydropyrimidin-6-yl]methyl]-3-oxo-5,6,8,8a-tetrahydro-1H-imidazo[1,5-a]pyrazin-2-yl]cyclopentanecarboxylic acid] was tested, and the EC50 was 30 nM. `CCOC(=O)C1=C(CN2CCN3C(=O)N([C@H](C)CC(=O)O)C[C@@H]3C2)NC(c2nccs2)=N[C@H]1c1cccc(F)c1Cl` [Example 57, (R)-6-[(S)-2-((R)-2-Carboxy-1-methyl-ethyl)-3-oxo-hexahydro-imidazo[1,5-a]pyrazin-7-ylmethyl]-4-(2-chloro-3-fluoro-phenyl)-2-thiazol-2-yl-1,4-dihydro-pyrimidine-5-carboxylic acid ethyl ester] gave an EC50 of 32 nM.
